Where “and” joins values, the source holds several entries; their conditions need not be identical. Equal entries are not always repeated.
Tested on: immunopurified mitochondria of DLD1-OMP25HA cells
Assay: LC-MS metabolomic profiling, Mito-IP samples
Type: cell-based, human
Method: Rapid immunopurification of mitochondria was performed following the published methodology (4). In brief, cells with control or NADK2 knockout were engineered to express the HA-tagged OMP25 protein (Addgene, 83356); or in the case of FIG. 5E, parental DLD1 cells were engineered to express the HA-tagged OMP25 protein or the Myc-tagged OMP25 protein (Addgene, 83355), 30 million cells were washed and dounce homogenized in KPBS (136 mM KCl and 10 mM KH2PO4, pH 7.25). The homogenate was then cleared by centrifugation and the supernatant was applied to anti-HA beads (Thermo Fisher, 88837) and incubated with rotation for 3.5 min. The resultant beads were washed with KPBS and were eluted for different downstream analyses: Triton X-100 lysis buffer (50 mM Tris-HCl, pH 7.4, 150 mM NaCl, 1 mM EDTA, 1% (vol/vol) Triton X-100, and protease inhibitors) was used to elute mitochondria for Western blot analysis; 80:20 methanol:water containing 1.5 μM ^13C^15N labeled amino acids (Cambridge Isotope Laboratories, MSK-A2-1.2) was used to elute mitochondria for liquid chromatography-mass spectrometry (LC-MS) analysis; 80:20 methanol:water was used to elute mitochondria for NAD(H) and NADP(H) measurements; glutathione lysis buffer (see below) was used to elute mitochondria for GSH measurements.
For negative ionization mode liquid chromatography separation was achieved on an iHILIC-(P) Classic column (100 mm×2.1 mm, 5 μm particle size, HILICON). Mobile phase A was 10 mM ammonium bicarbonate in 10:90 acetonitrile:water with 5 μM medronic acid, pH 9.4 and mobile phase B was 10 mM ammonium bicarbonate in 90:10 acetonitrile:water with 5 μM medronic acid, pH 9.4). The gradient was 0 min, 95% B; 15 min, 50% B; 18 min, 50% B; 19 min, 95% B; 19.10 min, 95% B; 25.5 min, 95% B; 2 mins posttime. Other LC parameters were: flow rate: 200 μL/min; column temperature: 40° C., and injection volume was 2 μL. MS parameters were: gas temp: 300° C.; gas flow: 10 L/min; nebulizer pressure: 40 psig; sheath gas temp: 350° C.; sheath gas flow: 12 L/min; VCap: 3,000 V; fragmentor: 125 V. Data were acquired from m/z 50-1700 with active reference masses correction (m/z: 121.05087 and 922.00980 (positive mode) or m/z: 119.03632 and 980.01638 (negative mode). Peak identification and integration were done based on in-house exact mass and retention time library built from commercial standards. Data analysis and natural isotope abundance correction were performed using MassHunter Profinder software v10.0 (Agilent Technologies).
For metabolomic profiling of the Mito-IP samples, dried extracts were resuspended in 30 μL of 60:40 acetonitrile:water and an additional 7.5 μL of 100% methanol added to prevent phase separation. Samples were vortexed, incubated on ice for 20 min, and clarified by centrifugation at 20,000 g for 20 min at 4° C. LC-MS analysis was using the iHILIC-(P) Classic negative method described with 6545 Q-TOF mass spectrometer (Agilent Technologies). Whole cell extracts were analyzed in parallel and data analysis was performed using MassHunter Profinder v10.0 software (Agilent Technologies). Metabolite identifications reported were based on either (a) exact mass and retention times matched to authentic standards (denoted as RT in Tables 1A-1G) or (b) exact mass and MS2 spectra match using SIRIUS software (denoted as MS2 in Tables 1A-1G) (https://bio.informatik.uni-jena.de/software/sirius/). Metabolites were considered to be mitochondrial if the average peak area measured in anti-HA Mito-IPs from HA-tagged OMP25 cells was at least 1.5-fold more than in anti-HA Mito-IPs from the control cell expressing Myc-tagged OMP25 (scc Tables 1A-1G; FC>1.5 for [OMP25HA sgCtrl MitoIP vs. OMP25Myc MitoIP]).

[1] = DLD1-OMP25HA sgCtrl + Piericidin MitoIP, 5 μM 2 hours, rep01-rep03

C/C=C(\C)[C@H](O)[C@H](C)/C=C(C)/C=C/C/C(C)=C/Cc1nc(OC)c(OC)c(O)c1C [piericidin]
2-aminoadipate level [1]: 62966 and 65899 and 79200
3-hydroxy-3-methylglutarate level [1]: 65452 and 77263 and 90857
3-hydroxyhexadecanoate level [1]: 154313 and 165893 and 273073
alpha-ketoglutarate level [1]: 36956 and 33481 and 64213
carbamoyl aspartate level [1]: 61946 and 44834 and 50496
citrate level [1]: 2652773 and 2956510 and 3197992
dodecanoate level [1]: 117632035 and 108567664 and 182339246
galactonic acid level [1]: 79663 and 109571 and 76436
glutamine level [1]: 58654 and 57894 and 67465
glutathione, reduced (GSH) level [1]: 5666886 and 8127441 and 4704089
lactate level [1]: 2355878 and 2582709 and 1383509
malate level [1]: 78861 and 87997 and 101969
methylmalonate level [1]: 49637 and 60988 and 87945
methylthioribulose 1-phosphate level [1]: 78919 and 79663 and 140471
nicotinamide adenine dinucleotide, reduced (NADH) level [1]: 3526961 and 3705811 and 4542289
oleate level [1]: 3976796 and 4283346 and 4070066
palmitate level [1]: 58619197 and 59278003 and 34887756
pentadecanoic acid level [1]: 988055 and 823203 and 616849
phenylacetate level [1]: 206078 and 155618 and 258772
phosphoglycolic acid level [1]: 12625 and 17645 and 24712
succinate level [1]: 32755 and 39006 and 43999
taurine level [1]: 3028424 and 3328577 and 3010797
uridine 5′-monophosphate (UMP) level [1]: 149496 and 116561 and 209899
glutamate and NADH levels in the mitochondria (sgCtrl DLD1-OMP25HA cells, 5 μM piericidin for 2 hours before Mito-IP): increased
